# Earlier results as cited in US8137922B2, “Method for diagnosing the metabolic syndrome (MS)” (Hans Dieplinger, priority 2007, dated 2012).
# Read-outs that look alike come from different tables or passages of the source.
# Biological target: T1, afamin (Homo sapiens, UniProt P43652)
# T1 sequence (P43652 22-599): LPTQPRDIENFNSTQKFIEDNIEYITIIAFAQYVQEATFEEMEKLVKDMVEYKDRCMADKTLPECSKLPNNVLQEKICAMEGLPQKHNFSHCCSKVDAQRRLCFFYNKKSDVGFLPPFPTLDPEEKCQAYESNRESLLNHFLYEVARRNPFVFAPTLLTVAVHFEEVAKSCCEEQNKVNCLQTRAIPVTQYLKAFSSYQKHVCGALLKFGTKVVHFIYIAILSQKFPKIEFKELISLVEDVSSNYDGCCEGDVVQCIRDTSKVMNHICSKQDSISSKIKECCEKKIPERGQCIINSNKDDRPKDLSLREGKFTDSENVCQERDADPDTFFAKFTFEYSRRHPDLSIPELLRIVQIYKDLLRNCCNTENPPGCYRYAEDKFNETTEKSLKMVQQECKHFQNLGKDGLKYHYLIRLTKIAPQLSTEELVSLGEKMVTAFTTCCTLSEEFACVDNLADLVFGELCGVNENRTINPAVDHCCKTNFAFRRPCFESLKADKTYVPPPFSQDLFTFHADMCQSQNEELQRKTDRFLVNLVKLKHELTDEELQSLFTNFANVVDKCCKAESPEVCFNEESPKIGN
# Conditions: for maximum displacement of tocopherol: 2 μM afamin, 60 μM alpha-[14C]tocopherol, 100-fold excess of non-labeled competitor
"Hill coefficient (calculated, indicates that afamin could bind pairs of tocopherol)","Kd (first of two binding sites, read-out: KD1, affinity of afamin for vitamin E) [µM]","Kd (second of two binding sites, read-out: KD2, affinity of afamin for vitamin E) [µM]",maximal binding (Bmax) (when both sites are activated),Molecule,maximum displacement of tocopherol [%]
,,,,Cc1c(C)c2c(c(C)c1O)CC[C@@](C)(CCC[C@H](C)CCC[C@H](C)CCCC(C)C)O2 [alpha-tocopherol],80
,,,,Cc1c(O)cc2c(c1C)O[C@](C)(CCC[C@H](C)CCC[C@H](C)CCCC(C)C)CC2 [gamma-tocopherol],80
1.8,6.3,22,18 molecules of Vitamin E,vitamin E,
